Like-named read-outs stand apart in the source and are kept apart here.
Key:
[1] = biological target: BACE1 (Homo sapiens, UniProt P56817); assay: BACE1 activity assay kit (β-secretase, CS0010), fluorescence; conditions: for remaining activity at 10 µM: read-out: % Residual Activity (at 10 µM) BACE1
Description: (§1) MAO inhibitory assay was assessed in accordance with the previously standardized methods of assessing recombinant MAO-A and MAO-B by using the substrates (0.06 mM kynuramine and 0.3 mM benzylamine, respectively) [38, 39, 40]. […] The enzymes and chemicals were purchased from Sigma-Aldrich (St. Louis, MO, USA).
(§2) Initially, the inhibitory activities of the synthesized compounds were identified at a concentration of 10 μM against MAO-A, MAO-B, and BACE1. […] The obtained IC50 values thus compared were used to deduce the SI values.

[2] = BBB permeation by PAMPA method; type: in vitro ADME; conditions: for Prediction (BBB permeation): class from experimental Pe; for Effective permeability (Pe): read-out: Experimental Pe
Description: The CNS bioavailability of the molecules was further ascertained by the PAMPA method.

[3] = biological target: T1, MAO-B (Homo sapiens, UniProt P27338); assay: MAO-B inhibitory assay (recombinant MAO-B, benzylamine substrate); conditions: for Selectivity index (SI) for MAO-B as compared with MAO-A: from the IC50 values of MAO-A and MAO-B; for remaining activity at 10 µM: read-out: % Residual Activity (at 10 µM) MAO-B
T1 sequence (P27338 1-520): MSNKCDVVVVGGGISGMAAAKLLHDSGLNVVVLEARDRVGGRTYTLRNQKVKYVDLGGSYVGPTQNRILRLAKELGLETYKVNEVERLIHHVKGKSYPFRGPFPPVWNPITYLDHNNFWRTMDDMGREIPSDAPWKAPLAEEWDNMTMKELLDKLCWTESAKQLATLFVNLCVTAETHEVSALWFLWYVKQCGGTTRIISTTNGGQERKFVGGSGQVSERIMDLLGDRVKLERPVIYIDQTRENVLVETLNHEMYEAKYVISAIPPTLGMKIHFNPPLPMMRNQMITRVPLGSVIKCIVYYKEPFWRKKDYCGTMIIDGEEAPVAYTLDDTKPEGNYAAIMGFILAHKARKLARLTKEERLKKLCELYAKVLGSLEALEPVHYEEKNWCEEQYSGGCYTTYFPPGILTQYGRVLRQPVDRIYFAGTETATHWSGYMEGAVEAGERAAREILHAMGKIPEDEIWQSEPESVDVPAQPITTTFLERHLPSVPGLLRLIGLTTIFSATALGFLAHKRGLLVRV
Description: as §1, §2

[4] = biological target: T2, recombinant MAO-A (Homo sapiens, UniProt P21397); assay: MAO-A inhibitory assay (recombinant MAO-A, kynuramine substrate); conditions: for remaining activity at 10 µM: read-out: % Residual Activity (at 10 µM) MAO-A
T2 sequence (P21397 1-527): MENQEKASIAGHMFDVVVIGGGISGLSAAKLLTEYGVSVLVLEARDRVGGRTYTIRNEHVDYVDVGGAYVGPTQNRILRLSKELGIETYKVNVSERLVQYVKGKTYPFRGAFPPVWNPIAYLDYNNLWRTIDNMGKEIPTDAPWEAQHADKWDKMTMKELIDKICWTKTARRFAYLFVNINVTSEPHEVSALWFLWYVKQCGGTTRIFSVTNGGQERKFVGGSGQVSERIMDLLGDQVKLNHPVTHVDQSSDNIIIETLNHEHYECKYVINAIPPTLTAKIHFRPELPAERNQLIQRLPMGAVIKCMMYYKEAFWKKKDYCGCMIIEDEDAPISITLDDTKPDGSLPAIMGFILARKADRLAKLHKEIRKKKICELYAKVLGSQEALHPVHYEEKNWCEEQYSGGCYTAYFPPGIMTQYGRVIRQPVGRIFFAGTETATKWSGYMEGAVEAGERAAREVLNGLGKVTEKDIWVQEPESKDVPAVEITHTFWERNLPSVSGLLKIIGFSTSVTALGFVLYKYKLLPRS
Description: as §1, §2

[5] = parameters: method as in PMID 29532412; conditions: PAMPA-BBB; cited from earlier work
[6] = biological target: T1, MAO-B; assay: MAO-B inhibitor-reversibility analysis by dialysis; type: biochemical; parameters: purchased Sigma-Aldrich; conditions: for Reversibility of MAO-B inhibition: dialysis method; for Relative MAO-B activity, dialyzed (AD) / Relative MAO-B activity, undialyzed (AU): ~2 × IC50 (NEA1 0.032, NEA3 0.020, lazabemide 0.22, pargyline 0.28 μM); for Relative MAO-B activity, dialyzed (AD): dialysis 6 h; for Relative MAO-B activity, undialyzed (AU): preincubated 30 min
Description: The reversibility of MAO-B inhibition by NEA1 and NEA3 was evaluated using a standardized dialysis method. […] The activities in dialyzed (AD) and undialyzed (AU) samples were compared and reversibility patterns were determined.
Dialysis was performed for 6 h with a buffer change after 3 h with duplicate experiments.

[7] = biological target: T1, MAO-B; assay: MAO-B enzyme-inhibition kinetics (Lineweaver–Burk and secondary plots); type: biochemical; parameters: purchased Sigma-Aldrich; conditions: for Mode of MAO-B inhibition: Lineweaver–Burk plots; for Ki: from secondary plot of Lineweaver–Burk slopes
Description: The obtained results are represented in Figure 1.
Figure 1 Lineweaver–Burk plots for MAO-B inhibition by NEA1 and NEA3 (A,C), and their respective secondary plots (B,D) of the slopes vs. inhibitor concentrations.

[8] = biological target: T1, MAO-B; parameters: purchased Sigma-Aldrich; method as in PMID 32246471; conditions: competitive inhibitor; read-out: Ki for MAO-B (earlier study); cited from earlier work

Chain of BACE1 (P56817 46-501): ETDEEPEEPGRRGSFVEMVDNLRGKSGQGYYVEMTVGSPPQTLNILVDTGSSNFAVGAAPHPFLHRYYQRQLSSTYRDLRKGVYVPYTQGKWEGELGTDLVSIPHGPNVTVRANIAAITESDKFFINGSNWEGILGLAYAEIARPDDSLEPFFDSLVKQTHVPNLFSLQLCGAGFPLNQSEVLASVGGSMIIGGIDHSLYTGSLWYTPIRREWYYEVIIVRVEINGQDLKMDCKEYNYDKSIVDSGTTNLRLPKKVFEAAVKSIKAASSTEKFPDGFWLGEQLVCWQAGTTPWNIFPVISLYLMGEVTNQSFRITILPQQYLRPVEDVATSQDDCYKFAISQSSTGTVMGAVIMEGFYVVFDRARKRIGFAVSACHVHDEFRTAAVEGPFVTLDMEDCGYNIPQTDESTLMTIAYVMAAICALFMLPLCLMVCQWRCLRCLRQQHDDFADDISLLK

O=C(C=Cc1ccc([N+](=O)[O-])cc1)Nc1ccc(Cl)cc1 [NEA2, N-(4-Chlorophenyl)-3-(4-nitrophenyl)acrylamide]
remaining activity at 10 µM [1]: 88.1 ± 0.3%
melting point: 224 to 226 °C
Prediction (BBB permeation) [2]: CNS+ (CNS+ (high BBB permeation predicted: Pe (10^−6 cm/s) > 4.00))
Effective permeability (Pe) [2]: 13.5 ± 0.26 ×10⁻⁶ cm/s
IC50 [3]: 5280 ± 90 nM
Selectivity index (SI) for MAO-B as compared with MAO-A [3]: >7.58
remaining activity at 10 µM [3]: 35.8 ± 6.2%
IC50 [4]: > 40000 nM
remaining activity at 10 µM [4]: 95 ± 0.5%

O=C(C=Cc1ccc([N+](=O)[O-])cc1)NC1CCCCC1 [NEA4, N-Cyclohexyl-3-(4-nitrophenyl)acrylamide]
remaining activity at 10 µM [1]: 61.2 ± 3%
melting point: 166 to 168 °C
Prediction (BBB permeation) [2]: CNS+ (CNS+ (high BBB permeation predicted: Pe (10^−6 cm/s) > 4.00))
Effective permeability (Pe) [2]: 15.5 ± 0.62 ×10⁻⁶ cm/s
IC50 [3]: 74 ± 20 nM
Selectivity index (SI) for MAO-B as compared with MAO-A [3]: >540.5
remaining activity at 10 µM [3]: 9.52 ± 3.5%
IC50 [4]: > 40000 nM
remaining activity at 10 µM [4]: 85.6 ± 1.7%

NCCc1ccc(O)c(O)c1 [Dopamine, reference compound]
Prediction (BBB permeation) [2]: CNS− (CNS− (low BBB permeation predicted: Pe (10^−6 cm/s) < 2.00))
Effective permeability (Pe) [2]: 0.26 ± 0.04 ×10⁻⁶ cm/s
Bibliography Pe [5]: 0.2 ×10⁻⁶ cm/s

CN1C(C(=O)Nc2ccccn2)=C(O)c2ccccc2S1(=O)=O [Piroxicam, reference compound]
Experimental Pe [2]: 2.37 ± 0.33 ×10^−6 cm/s
Prediction (BBB permeation) [2]: CNS± (CNS± (BBB permeation uncertain: Pe (10^−6 cm/s) from 2.00 to 4.00))
Bibliography Pe [5]: 2.5 ×10⁻⁶ cm/s

O=C(C=Cc1ccc([N+](=O)[O-])cc1)Nc1ccc(F)cc1 [NEA3, N-(4-Fluorophenyl)-3-(4-nitrophenyl)acrylamide]
IC50 [1]: 8020 ± 130 nM
remaining activity at 10 µM [1]: 34.4 ± 0.2%
Reversibility of MAO-B inhibition [6]: reversible
Relative MAO-B activity, dialyzed (AD) [6]: 79.5%
Relative MAO-B activity, undialyzed (AU) [6]: 32.8%
melting point: 208 to 210 °C
Prediction (BBB permeation) [2]: CNS+ (CNS+ (high BBB permeation predicted: Pe (10^−6 cm/s) > 4.00))
Effective permeability (Pe) [2]: 16.4 ± 0.17 ×10⁻⁶ cm/s
Mode of MAO-B inhibition [7]: competitive
Ki [7]: 4.9 ± 0.2 nM
IC50 [3]: 9.2 ± 0.3 nM
Selectivity index (SI) for MAO-B as compared with MAO-A [3]: 1652.2
remaining activity at 10 µM [3]: 3.04 ± 0.5%
IC50 [4]: 15200 ± 600 nM
remaining activity at 10 µM [4]: 61.9 ± 0.4%

C=CC(=O)Nc1cccc([N+](=O)[O-])c1 [AD9, N-(3-nitrophenyl)prop-2 enamide]
Ki [8]: 39 ± 5 nM

Cc1ccccc1NC(=O)/C=C/c1ccc([N+](=O)[O-])cc1 [NEA5, 3-(4-Nitrophenyl)-N-(O-tolyl)acrylamide]
IC50 [1]: 17700 ± 1700 nM
remaining activity at 10 µM [1]: 44 ± 0.2%
melting point: 200 to 203 °C
Prediction (BBB permeation) [2]: CNS+ (CNS+ (high BBB permeation predicted: Pe (10^−6 cm/s) > 4.00))
Effective permeability (Pe) [2]: 15.5 ± 0.44 ×10⁻⁶ cm/s
IC50 [3]: 38 ± 3 nM
Selectivity index (SI) for MAO-B as compared with MAO-A [3]: >1052.6
remaining activity at 10 µM [3]: 8.67 ± 2.3%
IC50 [4]: > 40000 nM
remaining activity at 10 µM [4]: 83.5 ± 1.3%

O=C(C=Cc1ccc([N+](=O)[O-])cc1)Nc1ccccc1 [NEA1, 3-(4-Nitrophenyl)-N-phenylacrylamide]
IC50 [1]: 8210 ± 30 nM
remaining activity at 10 µM [1]: 34.9 ± 0.5%
Reversibility of MAO-B inhibition [6]: reversible
Relative MAO-B activity, dialyzed (AD) [6]: 79.5%
Relative MAO-B activity, undialyzed (AU) [6]: 29.2%
Prediction (BBB permeation) [2]: CNS+ (CNS+ (high BBB permeation predicted: Pe (10^−6 cm/s) > 4.00))
Effective permeability (Pe) [2]: 14.4 ± 0.35 ×10⁻⁶ cm/s
Mode of MAO-B inhibition [7]: competitive
Ki [7]: 13 ± 5 nM
IC50 [3]: 16 ± 1 nM
Selectivity index (SI) for MAO-B as compared with MAO-A [3]: >2500.0
remaining activity at 10 µM [3]: 3.88 ± 0.6%
IC50 [4]: > 40000 nM
remaining activity at 10 µM [4]: 91.9 ± 5.9%

CCn1cc(C(=O)O)c(=O)c2cc(F)c(N3CCNC(C)C3)c(F)c21 (stereo not drawn) [Lomefloxacin, reference compound]
Prediction (BBB permeation) [2]: CNS− (CNS− (low BBB permeation predicted: Pe (10^−6 cm/s) < 2.00))
Effective permeability (Pe) [2]: 1.31 ± 0.51 ×10⁻⁶ cm/s

— article PMC8512054 (Molecules, 2021)
